For 12 molecules, IC50 results are on record in paper PMC10504015, “Design, synthesis, and enzyme inhibition evaluation of some novel Mono- and Di-O-β-D-Glycopyranosyl Chalcone analogues with molecular docking studies” (Turkish Journal of Chemistry, 2022).

Where only a bound is given, the exact number is not on record here.

What all share (assay type): biochemical
One test concerns the target tyrosinase (Agaricus bisporus, UniProt C7FF04). The test is described as follows: Tyrosinase from mushroom inhibitory effect (L-DOPA substrate, 475 nm). As to conditions: phosphate buffer pH 6.8, read-out: IC50 on tyrosinase (Tyr). How it is done: The tyrosinase inhibitory effects of the newly synthesized compounds were performed using microplate reader with minor modifications according to the standard method. […] The activity of tyrosinase solution was adjusted as 250 U/mL in phosphate buffer (pH 6.8, 100 mM). For each wells, 100 μL buffer (pH 6.8, 100 mM), 20 μL of tyrosinase (0.2 U/mL), and 20 μL of compounds were added and incubated 20 min. After incubation, 20 μL of 3,4-dihydroxy-L-phenylalanine (3 mM) was pipetted into wells. Absorbance was measured at 475 nm.

A further test addresses AChE (Electrophorus electricus, UniProt O42275). As to conditions: electric eel AChE, Tris-HCl buffer pH 8.0. How it is done: The AChE from electric eel inhibitory effects of the newly synthesized compounds were performed using microplate reader with minor modification according to the standard method. […] The activity of AChE solution was adjusted as 0.2 U/mL in Tris-HCl buffer (pH 8.0, 50 mM). For each wells, 50 μL buffer (pH 8.0, 50 mM), 125 μL 5,5-dithio-bis(2-nitrobenzoic)acid (3 mM), 25 μL of AChE (0.2 U/mL) and 25 μL of compounds were added and incubated 20 min at room temperature. After incubation, 25 μL of acetylthiocholine iodide (15 mM) was pipetted into wells. Absorbance was measured at 412 nm.

A further test concerns the target α-glycosidase. The test can be described thus: α-Glycosidase inhibitory effect (p-nitrophenyl-α-D glucopyranoside substrate). As to conditions: enzyme 2 U/mL, phosphate buffer pH 6.8, 37 °C; nd: not detected. How it is done: α-glycosidase inhibitory effect of the newly synthesized samples that were solvated in DMSO was performed with some minor modifications of the standard method. The activity degree of the enzyme solution was adjusted as 2 U/mL in phosphate buffer (pH 6.8, 50 mM). For each test tube, 150 μL of the sample, 150 μL of the enzyme (2 U/mL), and 150 μL of buffer were pipetted. After the incubation for 15 min at 37 °C, 150 μL of p-nitrophenyl-α-D glucopyranoside (20 mM, Sigma-Aldrich) was added and then their absorbance was monitored for 20 min at 400 nm.

Sequence of AChE (O42275 24-633): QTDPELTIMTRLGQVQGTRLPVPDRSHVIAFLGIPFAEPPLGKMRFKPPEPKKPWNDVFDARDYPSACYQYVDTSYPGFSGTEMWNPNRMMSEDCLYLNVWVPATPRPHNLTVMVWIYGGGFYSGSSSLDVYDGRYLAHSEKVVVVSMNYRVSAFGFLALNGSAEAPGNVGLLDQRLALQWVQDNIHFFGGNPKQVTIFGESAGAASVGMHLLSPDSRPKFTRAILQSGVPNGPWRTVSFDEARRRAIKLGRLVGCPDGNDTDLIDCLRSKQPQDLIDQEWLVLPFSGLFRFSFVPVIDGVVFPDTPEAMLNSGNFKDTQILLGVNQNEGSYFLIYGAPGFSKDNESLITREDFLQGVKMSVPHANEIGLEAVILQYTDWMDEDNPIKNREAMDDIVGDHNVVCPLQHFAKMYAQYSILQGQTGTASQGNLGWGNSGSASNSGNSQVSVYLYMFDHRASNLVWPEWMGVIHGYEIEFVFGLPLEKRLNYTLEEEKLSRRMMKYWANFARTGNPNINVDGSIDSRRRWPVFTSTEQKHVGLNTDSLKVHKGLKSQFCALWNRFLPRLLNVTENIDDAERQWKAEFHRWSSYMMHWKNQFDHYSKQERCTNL
Sequence of tyrosinase (C7FF04 1-392 limits assumed): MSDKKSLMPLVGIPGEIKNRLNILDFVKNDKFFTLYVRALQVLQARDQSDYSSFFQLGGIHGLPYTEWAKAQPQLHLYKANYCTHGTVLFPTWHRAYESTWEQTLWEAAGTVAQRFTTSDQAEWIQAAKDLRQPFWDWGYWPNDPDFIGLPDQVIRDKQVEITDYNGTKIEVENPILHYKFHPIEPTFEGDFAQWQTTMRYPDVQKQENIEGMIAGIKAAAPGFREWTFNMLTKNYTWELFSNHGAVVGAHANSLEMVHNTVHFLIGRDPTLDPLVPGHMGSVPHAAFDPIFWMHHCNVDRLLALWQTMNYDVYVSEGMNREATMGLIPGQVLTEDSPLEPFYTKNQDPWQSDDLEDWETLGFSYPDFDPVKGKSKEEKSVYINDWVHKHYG

As usually defined, the IC50 is the midpoint of a concentration-inhibition curve. `COc1cc(C(=O)/C=C/c2ccccc2O)ccc1O[C@@H]1O[C@H](CO)[C@@H](O)[C@H](O)[C@H]1O` [7a, (2E)-1-(4-O-β-D-glucopyranosyl-3-methoxyphenyl)-3-(2-hydroxyphenyl)prop-2-en-1-one]: the IC50 on tyrosinase and against AChE was above 100 µM in each case.
Turning to `COc1cc(C(=O)/C=C/c2cccc(O)c2)ccc1O[C@@H]1O[C@H](CO)[C@@H](O)[C@H](O)[C@H]1O` [7b, (2E)-1-(4-O-β-D-glucopyranosyl-3-methoxyphenyl)-3-(3-hydroxyphenyl)prop-2-en-1-one], the IC50 was 82.5 ± 4.5 µM at tyrosinase and above 100 µM on AChE.
For `COc1cc(C(=O)/C=C/c2ccc(O)cc2)ccc1OC1OC(CO)C(O)C(O)C1O` [7c, (2E)-1-(4-O-β-D-glucopyranosyl-3-methoxyphenyl)-3-(4-hydroxyphenyl)prop-2-en-1-one] the same measures were 11.1 ± 0.55 µM and above 100 µM.
For `COc1cc(C(=O)/C=C/c2ccccc2O[C@@H]2O[C@H](CO)[C@@H](O)[C@H](O)[C@H]2O)ccc1O[C@@H]1O[C@H](CO)[C@@H](O)[C@H](O)[C@H]1O` [8a, (2E)-1-(4-O-β-D-glucopyranosyl-3-methoxyphenyl)-3-(2-O-β-D-glucopyranosylphenyl)-prop-2-en-1-one] the same measures were above 100 µM and above 100 µM.
Consider `COc1cc(C(=O)/C=C/c2cccc(OC3OC(CO)C(O)C(O)C3O)c2)ccc1OC1OC(CO)C(O)C(O)C1O` [8b, (2E)-1-(4-O-β-D-glucopyranosyl-3-methoxyphenyl)-3-(3-O-β-D-glucopyranosylphenyl)-prop-2-en-1-one], for which the IC50 at tyrosinase was above 100 µM; on AChE it was 81.8 ± 3.4 µM.
For `COc1cc(C(=O)/C=C/c2ccc(O[C@@H]3O[C@H](CO)[C@@H](O)[C@H](O)[C@H]3O)cc2)ccc1O[C@@H]1O[C@H](CO)[C@@H](O)[C@H](O)[C@H]1O` [8c, (2E)-1-(4-O-β-D-glucopyranosyl-3-methoxyphenyl)-3-(4-O-β-D-glucopyranosylphenyl)-prop-2-en-1-one] the same measures were 53.6 ± 2.31 µM and above 100 µM.
Turning to `COc1ccccc1/C=C/C(=O)c1cc(O)cc(O[C@@H]2O[C@H](CO)[C@@H](O)[C@H](O)[C@H]2O)c1` [16a, (2E)-1-(3-O-β-D-glucopyranosyl-5-hyroxyphenyl)-3-(2-methoxyphenyl)-prop-2-en-1-one], the values for the IC50 at tyrosinase, on α-glycosidase and against AChE were above 100 µM, 12870 ± 90 µM and above 100 µM, respectively.
With `COc1cccc(/C=C/C(=O)c2cc(O)cc(O[C@@H]3O[C@H](CO)[C@@H](O)[C@H](O)[C@H]3O)c2)c1` [16b, (2E)-1-(3-O-β-D-glucopyranosyl-5-hyroxyphenyl)-3-(3-methoxyphenyl)-prop-2-en-1-one], the results for the half-maximal inhibitory concentration (IC50) on tyrosinase, against α-glycosidase and at AChE were above 100 µM, 6600 ± 50 µM and above 100 µM, respectively.
Turning to `COc1ccc(/C=C/C(=O)c2cc(O)cc(O[C@@H]3O[C@H](CO)[C@@H](O)[C@H](O)[C@H]3O)c2)cc1` [16c, (2E)-1-(3-O-β-D-glucopyranosyl-5-hydroxyphenyl)-3-(4-methoxyphenyl)-prop-2-en-1-one], the IC50 at tyrosinase is above 100 µM; at α-glycosidase it was 6800 ± 60 µM; on AChE, above 100 µM.
`COc1ccccc1/C=C/C(=O)c1cc(OC2OC(CO)C(O)C(O)C2O)cc(OC2OC(CO)C(O)C(O)C2O)c1` [17a, (2E)-1-(3,5-di-O-β-D-glucopyranosylphenyl)-3-(2-methoxyphenyl)-prop-2-en-1-one]: the figures for the IC50 at tyrosinase, against α-glycosidase and at AChE were above 100 µM, 23600 ± 900 µM and above 100 µM, respectively.
As to `COc1cccc(/C=C/C(=O)c2cc(OC3OC(CO)C(O)C(O)C3O)cc(OC3OC(CO)C(O)C(O)C3O)c2)c1` [17b, (2E)-1-(3,5-di-O-β-D-glucopyranosylphenyl)-3-(3-methoxyphenyl)-prop-2-en-1-one], the IC50 at tyrosinase was above 100 µM; at α-glycosidase, 16600 ± 620 µM; against AChE, above 100 µM.
As for `COc1ccc(/C=C/C(=O)c2cc(OC3OC(CO)C(O)C(O)C3O)cc(OC3OC(CO)C(O)C(O)C3O)c2)cc1` [17c, (2E)-1-(3,5-di-O-β-D-glucopyranosylphenyl)-3-(4-methoxyphenyl)-prop-2-en-1-one], the IC50 at tyrosinase was 34.4 ± 1.74 µM; on α-glycosidase, 16300 ± 630 µM; at AChE it was above 100 µM.
